For data set [1], the system named is Human immunodeficiency virus 1. Put plainly: Antiviral activity against HIV1 NL4-3 infected in human MT4 cells assessed as reduction in virus-induced cell death by MTT assay. The data set is classed as functional, organism-based. To be noted: Human immunodeficiency virus 1, NL4-3, MT4. On the technique in general: Tetrazolium dyes change colour on reduction, which living cells bring about.

Data set [2] relates to Human immunodeficiency virus 1. Put plainly: Antiviral activity against HIV1 NL4-3 expressing reverse transcriptase K103N mutant infected in human MT4 cells assessed as reduction in virus-induced cell death by MTT assay. The data set is classed as functional, organism-based. The following applies: Human immunodeficiency virus 1, NL4-3, MT4.
Data set [3] has as its system Human immunodeficiency virus 1. The data set is classed as functional, organism-based. The following applies: Human immunodeficiency virus 1, NL4-3, MT4.
For data set [4], the system named is Human immunodeficiency virus 1. The data set is classed as functional, organism-based. The following applies: Human immunodeficiency virus 1, NL4-3, MT4. The source holds these as a separate data set.
The subject of data set [5] is Human immunodeficiency virus 1. Format: functional, organism-based. The following applies: Human immunodeficiency virus 1, NL4-3, MT4. This is another data set of the same source.
The target of data set [6] is T1, Human immunodeficiency virus type 1 reverse transcriptase (Human immunodeficiency virus 1, UniProt Q72547).
The target in data set [7] is Human immunodeficiency virus type 1 reverse transcriptase (Human immunodeficiency virus 1, UniProt Q72547, V106A). As to the kind of experiment: Inhibition of […] HIV1 reverse transcriptase V106A mutant assessed as reduction in enzyme activity.
For data set [8], the system named is Human immunodeficiency virus 1. Put plainly: Antiviral activity against HIV1 Clade A (UG273) infected in human PBMC assessed as reduction in p24 antigen production. The data set is classed as functional, organism-based. The following applies: Human immunodeficiency virus 1, Clade A (UG273).
The subject of data set [9] is Human immunodeficiency virus 1. As to the kind of experiment: Antiviral activity against HIV1 Clade B (BaL) infected in human PBMC assessed as reduction in p24 antigen production. The following applies: Human immunodeficiency virus 1, Clade B (BaL). The data set is classed as functional, organism-based.
In data set [10] the test system is Human immunodeficiency virus 1. As to the kind of experiment: Antiviral activity against HIV1 Clade C (DJ259) infected in human PBMC assessed as reduction in p24 antigen production. The data set is classed as functional, organism-based. The following applies: Human immunodeficiency virus 1, Clade C (DJ259).
In data set [11] the test system is Human immunodeficiency virus 1. As to the kind of experiment: Antiviral activity against HIV1 Clade D (UG270) infected in human PBMC assessed as reduction in p24 antigen production. Format: functional, organism-based. The following applies: Human immunodeficiency virus 1, Clade D (UG270).
The subject of data set [12] is Human immunodeficiency virus 1. Put plainly: Antiviral activity against HIV1 Clade A/E (ID12) infected in human PBMC assessed as reduction in p24 antigen production. The data set is classed as functional, organism-based. To be noted: Human immunodeficiency virus 1, Clade A/E (ID12).
For data set [13], the system named is Human immunodeficiency virus 1. As to the kind of experiment: Antiviral activity against HIV1 Clade F (BZ162) infected in human PBMC assessed as reduction in p24 antigen production. Format: functional, organism-based. To be noted: Human immunodeficiency virus 1, Clade F (BZ162).
The subject of data set [14] is Human immunodeficiency virus 1. As to the kind of experiment: Antiviral activity against HIV1 Clade G (HH8793) infected in human PBMC assessed as reduction in p24 antigen production. The data set is classed as functional, organism-based. To be noted: Human immunodeficiency virus 1, Clade G (HH8793).
The subject of data set [15] is Human immunodeficiency virus 2. Put plainly: Antiviral activity against HIV2 ROD infected in human PBMC cells assessed as reduction in p24 antigen production. The data set is classed as functional, organism-based. To be noted: ISOLATE ROD.
Data set [16] concerns the target T1, Human immunodeficiency virus type 1 reverse transcriptase. This is another data set of the same source.
Description: Inhibition of wild type HIV1 reverse transcriptase assessed as reduction in enzyme activity
Data set [17] addresses Human immunodeficiency virus type 1 reverse transcriptase (Human immunodeficiency virus 1, UniProt Q72547, K103N).
Description: Inhibition of wild type HIV1 reverse transcriptase K103N mutant assessed as reduction in enzyme activity
Data set [18] addresses Human immunodeficiency virus type 1 reverse transcriptase (Human immunodeficiency virus 1, UniProt Q72547, L100I).
Description: Inhibition of wild type HIV1 reverse transcriptase L100I mutant assessed as reduction in enzyme activity
Data set [19] in a line: Cytotoxic activity against human MT4 cells by MTT assay. Format: cell-based.
The test system of data set [20] is Human immunodeficiency virus 1. Put plainly: Antiviral activity against HIV1 3B infected in human CEM cells assessed as protection against virus-induced cytopathicity by giant cell formation assay. Format: functional, organism-based. The following applies: Human immunodeficiency virus 1, 3B, CCRF-CEM. (Damage to the host cells serves as the signal in cytopathic effect assays.)

Data set [21] concerns Human immunodeficiency virus 2. Put plainly: Antiviral activity against HIV2 ROD infected in human CEM cells assessed as protection against virus-induced cytopathicity by giant cell formation assay. Format: functional, organism-based. To be noted: Human immunodeficiency virus 2, ISOLATE ROD, CCRF-CEM.
The subject of data set [22] is Human immunodeficiency virus 1. Put plainly: Antiviral activity against HIV1 NL4-3 expressing reverse transcriptase L100I mutant infected in human MT4 cells assessed as reduction in virus-induced cell death by MTT assay. To be noted: Human immunodeficiency virus 1, NL4-3, MT4. The data set is classed as functional, organism-based.
The target in data set [23] is Human immunodeficiency virus type 1 reverse transcriptase (Human immunodeficiency virus 1, UniProt Q72547, Y181I).
The nature of the next data set: in vitro. The following applies: human, MT4 cells.
A further data set concerns Plasma. Put plainly: Stability in human plasma assessed as compound hydrolysis after 24 hrs. Format: ADME, cell-free.
Data set [24] is described as follows: Permeability by PAMPA method. The data set is classed as ADME. On the technique in general: PAMPA measures passive passage across an artificial lipid membrane.
The nature of data set [25]: Drug retention assessed as membrane retention by PAMPA method. The data set is classed as physicochemical.
Data set [26] is described as follows: Stability in human plasma assessed as remaining unmodified parent compound level after 24 hrs. Format: ADME, cell-free. To be noted: read-out: Stability.

This note sets out measurements from ChEMBL document CHEMBL3351613, “Indolylarylsulfones carrying a heterocyclic tail as very potent and broad spectrum HIV-1 non-nucleoside reverse transcriptase inhibitors” (J Med Chem, 2014).

SMILES strings stand for the structures. pEC50, pIC50: −log10 of the molar value. Active and inactive are the calls of the source. The calls are words filed in the database; no cut-off is given here. A value given as a limit tells only on which side of the number the result lay.

The pEC50 is −log10 of the EC50, conventionally taken in molar units. The pIC50 is the negative decadic logarithm of the IC50, by convention in mol/L. Usually CC50 stands for the concentration giving 50% cytotoxicity. High values mean lower toxicity to the cells, low ones greater toxicity to the cells. Usually Papp stands for the rate of passage across a membrane or cell layer, normalised by area and donor concentration. A low value points to slow passage.

Description for in vitro: Selectivity index, ratio of CC50 for human MT4 cells to EC50 for HIV1 NL4-3 infected in human MT4 cells

Turning to `Cc1cc(C)cc(S(=O)(=O)c2c(C(=O)N[C@@H](C)c3ccncc3)[nH]c3ccc(Cl)cc23)c1`, the pEC50 was 9.70 in [1]; 8.37 in [2]; 6.89 in data set [3]; 5.29 in [4]; 5.38 in data set [5]; 8.28 in data set [8]. In addition, the pEC50 in data set [9] was 8.70; in data set [10] it was 8.85; in [11] it was 8.37; in [12] it was 8.39; in data set [13], 8.31; in [14], 8.44. The pIC50 in [6] was 3.96; in data set [7], 7.26; in data set [16], 7.40; in [17], 6.15; in data set [18] it was 7.70. For the same compound, in data set [15], the result was inactive.
As to `Cc1cc(C)cc(S(=O)(=O)c2c(C(=O)NC(C)c3ccncc3)[nH]c3ccc(Cl)cc23)c1` (racemic), the CC50 in data set [19] stood at 30.2 µM. Further, the pEC50 is 9.70 in data set [1]; 8.39 in data set [20]; < 5.00 in [21]; 8.03 in [2]; 7.06 in [3]; 8.33 in data set [22]. This compound also had a pEC50 in data set [5] of 5.95. Besides, the pIC50 was 5.46 in data set [6]; 7.40 in data set [7]; 7.40 in data set [16]; 6.66 in [17]; 7.52 in [18]; 5.45 in data set [23]. In “in vitro”, the selectivity ratio was determined as 151000.
In turn, `Cc1cc(C)cc(S(=O)(=O)c2c(C(=O)NC(C)c3cccnc3)[nH]c3ccc(Cl)cc23)c1` (racemic) gave a CC50 in data set [19] of 54.6 µM. Further, the pEC50 in [1] was 9.22; in data set [20], 8.18; in data set [21], < 5.00; in data set [2], 7.47; in [3], 6.66; in data set [22], 7.70. Further, in data set [5], the pEC50 is 5.07. Moreover, the pIC50 in [16] is 7.00; in data set [17] it was 6.92; in data set [18], 7.70; in data set [23], < 4.70. Further, in the data set “in vitro”, the selectivity ratio amounted to 91000.
Turning to `Cc1cc(C)cc(S(=O)(=O)c2c(C(=O)N[C@H](C)c3ccncc3)[nH]c3ccc(Cl)cc23)c1`, the pEC50 in [1] was 9.70; in data set [3] it was 8.68; in [4], 6.03; in [5] it was 6.82; in data set [8], 8.47; in [9] it was 8.68. In addition, the negative-log EC50 (pEC50) in data set [10] is 9.15; in data set [11], 8.74; in data set [12] it was 8.92; in data set [13], 8.80; in data set [14], 8.77. Also, the pIC50 in data set [6] is 5.65; in data set [7] it was 7.59; in [16], 7.74; in data set [17], 7.30; in data set [18], 8.52. Also, the result in data set [15] was inactive. The Stability entry in the data set with Plasma is listed as “Stable”. Further, the Papp in data set [24] came to 12.4 ×10⁻⁶ cm/s. For the same compound, the Drug uptake in [25] turned out to be 0%. In data set [26], the remaining at 24 h is 99%.
